Reference: paper PMC3261944, “The in Vitro Estrogenic Activities of Polyfluorinated Iodine Alkanes” (Environmental Health Perspectives, 2011)
Entries after “also recorded” stand apart in the source; their conditions may differ.

Key:
[1] = tested on: MCF-7BUS cells; assay: E-screen assay (MCF-7BUS cell proliferation, WST-1); type: cell-based, Human; conditions: for E-screen Maximum induction (%): percentage of the maximum proliferation effect of tested compound to that of E2, 6 days exposure; for Proliferation / estrogenic effect in the E-screen assay (in words): within the tested concentration ranges
Protocol: (§1) Cell culture. Human MCF-7BUS breast adenocarcinoma cells and MVLN cells were cultured in 100-mm culture dishes in a humidified atmosphere of 5% CO2 at 37°C. Cells were maintained in Dulbecco’s modified Eagle’s medium (DMEM)/F-12 (Hyclone, Logan, UT, USA) containing 10% fetal bovine serum, 100 U/mL streptomycin-penicillin, 2 mM L-glutamine, and 1% insulin-transferrin-selenium supplement (all from Gibco, Grand Island, NY, USA).
E-screen assay. MCF-7BUS cells were kindly provided by A.M. Soto and C. Sonnenschein (Tufts University School of Medicine, Boston, MA, USA). In response to ERα agonists, the mitotic effect leads to the proliferation of MCF-7BUS cells. […] Cells were trypsinized and plated into the interior 60 wells of 96-well plates at the density of 3,000 cells/well. Before each experiment, cells were starved in steroid-free (SF) medium for 48 hr to minimize the basal hormonal activity during assays. SF medium consisted of phenol red–free DMEM/F-12 (Hyclone) supplemented with 5% dextran-charcoal-treated fetal bovine serum (Hyclone), 100 U/mL streptomycin-penicillin, and 2 mM L-glutamine. […] We used a WST-1 proliferation kit (Roche Diagnostics, Mannheim, Germany) to assess proliferation after 6 days of exposure according to the kit instructions. The WST-1 assay is based on the enzymatic cleavage of the tetrazolium salt WST-1 to formazan by cellular mitochondrial dehydrogenases present in viable cells. The absorbance of the WST-1 solution was detected by a microplate reader (Varioskan Flash, Thermo Fisher Scientific, Waltham, MA, USA) at 450 nm, with the reference wave length at 690 nm. The cell proliferation effect was calculated from the solvent control (0.1% ethanol)-corrected absorbance and expressed as the percentage of maximal absorbance of the positive control. Three replicates were used in each experiment.
(§2) The concentration–response analyses were performed with four-parameter logistic curve regression analysis according to the following formula:
(§3) y = minimum + (maximum – minimum) ÷ [1 + (x/EC50)^Hill slope], [1]
(§4) where y is the response value, x is the log concentration of the test compound, and EC50 is the concentration that induces half of the maximum proliferation effect or luciferase activity.
EC50 values were calculated from this nonlinear regression model. EC20 were calculated as […]

[2] = target: T1, ER (Homo sapiens, UniProt P03372); assay: MVLN assay (estrogen-responsive luciferase reporter transactivation); type: cell-based; conditions: for MVLN assay Maximum induction (%): percentage of the maximum induction (luciferase) of tested compound to that of E2, 2 days exposure; for Luciferase induction / estrogenic effect in the MVLN assay (in words): within the tested concentration ranges
T1 construct: This cell line was stably transfected with the luciferase reporter gene and estrogen-responsive element derived from the Xenopus vitellogenin A2 gene; endogenous in cells; host or cells: MVLN cells (provided by J.P. Giesy)
T1 sequence (P03372 1-595): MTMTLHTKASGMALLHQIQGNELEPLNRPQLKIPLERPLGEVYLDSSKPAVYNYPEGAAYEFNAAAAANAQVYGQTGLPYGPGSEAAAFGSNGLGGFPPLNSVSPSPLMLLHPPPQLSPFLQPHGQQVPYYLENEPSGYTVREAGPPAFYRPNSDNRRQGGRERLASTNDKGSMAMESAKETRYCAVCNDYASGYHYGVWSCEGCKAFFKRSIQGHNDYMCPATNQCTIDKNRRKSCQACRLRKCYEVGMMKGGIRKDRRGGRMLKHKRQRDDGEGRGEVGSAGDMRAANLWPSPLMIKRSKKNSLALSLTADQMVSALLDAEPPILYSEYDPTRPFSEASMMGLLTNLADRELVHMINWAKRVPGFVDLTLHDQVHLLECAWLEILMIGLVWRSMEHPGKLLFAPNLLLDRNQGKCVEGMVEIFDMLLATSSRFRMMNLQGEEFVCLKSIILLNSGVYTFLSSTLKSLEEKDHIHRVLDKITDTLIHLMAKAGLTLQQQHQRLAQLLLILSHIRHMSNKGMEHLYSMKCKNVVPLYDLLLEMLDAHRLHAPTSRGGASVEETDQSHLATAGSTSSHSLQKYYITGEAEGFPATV
Protocol: as §1
MVLN assay. The MVLN cell line was kindly provided by J.P. Giesy (Michigan State University, East Lansing, MI, USA). This cell line was stably transfected with the luciferase reporter gene and estrogen-responsive element derived from the Xenopus vitellogenin A2 gene. […] Cells were seeded in the interior 60 wells of a 96-well ViewPlate (Packard Instrument Company, Boston, MA, USA) at a density of 7 × 10^4 cells/well, starved in SF medium for 48 hr, and exposed to test compounds for 2 days. […] Luciferase activity was measured with the LucLite kit (Packard Instruments) according to the manufacturer’s protocol. We measured luminescence by microplate reader (Varioskan Flash) and integrated the luminescence signal for 10 sec. Total protein content was measured by the Bradford assay (Tiangen, Beijing, China) to normalize luminescent units. The results are given as relative luminescent unit per microgram protein. The maximal induction of positive control (corrected for solvent control, 0.1–0.2% ethanol) was set as 100%, and the responses of other chemicals were converted to a percentage of the maximum level. Three replicates were used in each experiment. The cytotoxicity of tested chemicals was examined by WST-1 kit in parallel and routinely observed under microscope to identify the exposure concentration range.
as §2, §3, §4
EC50 values were calculated from this nonlinear regression model. EC20 were calculated as
ECx = [x/(100 – x)]^(1/Hill slope) × EC50, [2]

[3] = tested on: TFF1 (pS2); assay: Expression of estrogen-responsive gene TFF1 (quantitative RT-PCR); type: cell-based, Human; conditions: MCF-7 cells, 48 hr, vs 0.1% ethanol; 50 μM PFBI, PFHxI, PFOI, PFBDI, PFOA, PFOC, PFOB, 1-iodohexane, 4:2 FTI, 6:2 FTI; 40 μM PFDI, PFDoI, PFODI, 8:2 FTI, 10:2 FTI; 20 μM PFHxDI; 100 pM E2
Protocol: (§5) RNA isolation and reverse transcription polymerase chain reaction (RT-PCR). MCF-7BUS cells were seeded in six-well plates at the density of 1.0 × 10^6 cells per well, starved in SF medium for 48 hr, and exposed to test compounds for 48 hr. First, cells were rinsed twice with cold phosphate-buffered saline, and total RNA was isolated using Trizol reagent (Invitrogen Inc., Carlsbad, CA, USA) following the manufacturer’s protocol. The 260 nm and 280 nm absorbance reading of total RNA was performed using a Nanodrop spectrophotometer (Thermo Scientific, Waltham, MA, USA). The concentration of RNA was quantified by the reading at 260 nm.
(§6) We used a two-step quantitative RT-PCR to quantify gene expression. Total RNA was converted to cDNA using M-MLV (Moloney murine leukemia virus) reverse transcriptase (Promega, Madison, WI, USA) with oligo dT(15), following the manufacturer’s instructions. The final cDNA solution was diluted five times with DNase/RNase-free water (Gibco). Quantitative PCR was performed with a Stratagene MX3005 thermal cycler (Stratagene, La Jolla, CA, USA). PCR reaction mixtures (25 μL) contained 12.5 μL GoTaq Green Master Mix (Promega), 2 μL diluted cDNA, and 0.2 μM sense/antisense primers. The thermal cycle was 5 min at 95°C, followed by 45 cycles of 15 sec at 95°C, 30 sec at 55°C, and 30 sec at 72°C. The primer sequences of early growth response protein 3 (EGR3) were derived from [Terasaka et al. (2004)]. We designed the primers of internal gene β-actin and trefoil factor 1 (TFF1; pS2) with Primer Premier 5 software (Premier Biosoft International, Palo Alto, CA, USA). The primer sequences were as follows: for β-actin (NM_001101), 5´-CACTCT[…]TCCTTCC-3´ (forward) and 5´-[…][…]-3´ (reverse); for EGR3 (NM_004430), 5´-CCATGATTC[…]-3´ (forward) and 5´-GTGGATCTGCTTGTCTTTGAATG-3´ (reverse); and for TFF1 (NM_003225), 5´-AGAAGCG […]-3´ (forward) and 5´-[…][…]-3´ (reverse). The quantification of target gene expression was based on a comparative cycle threshold (Ct) value. We normalized the expression level of each target gene to its reference gene β-actin. The fold change of the target genes was analyzed by the 2^−ΔΔCt method ([Livak and Schmittgen 2001]). We used melting curve analysis and agarose gel electrophoresis to verify the correct PCR products.

[4] = tested on: EGR3; assay: Expression of estrogen-responsive gene EGR3 (quantitative RT-PCR); type: cell-based, Human; conditions: MCF-7 cells, 48 hr, vs 0.1% ethanol; 50 μM PFBI, PFHxI, PFOI, PFBDI, PFOA, PFOC, PFOB, 1-iodohexane, 4:2 FTI, 6:2 FTI; 40 μM PFDI, PFDoI, PFODI, 8:2 FTI, 10:2 FTI; 20 μM PFHxDI; 100 pM E2
Protocol: as §5, §6

[5] = tested on: gap junction intercellular communication; set-up: method as in Hu et al. 2002; Upham et al. 1998; conditions: ref Hu et al. 2002; Upham et al. 1998; cited from earlier work
[6] = tested on: vitellogenin; set-up: method as in Liu et al. (2007); conditions: primary cultured tilapia hepatocytes; ref Liu et al. (2007); cited from earlier work
[7] = tested on: vitellogenin; set-up: method as in Ishibashi et al. 2008; conditions: male medaka fish; ref Ishibashi et al. 2008; cited from earlier work

Row | SMILES | E-screen Maximum induction (%) [1] | Proliferation / estrogenic effect in the E-screen assay (in words) [1] | MVLN assay Maximum induction (%) [2] | Luciferase induction / estrogenic effect in the MVLN assay (in words) [2] | TFF1 mRNA expression, fold up-regulation [3] | EGR3 mRNA expression, fold up-regulation [4] | Inhibition of gap junction intercellular communication [5] | Vitellogenin expression [6] | Vitellogenin induction [7]
1 | FC(F)(F)C(F)(F)C(F)(F)C(F)(F)C(F)(F)C(F)(F)C(F)(F)C(F)(F)Br [PFOB, 1-bromoperfluorooctane, reference compound] | NDd (The maximum relative proliferation effect was < 7%) | negative results | NDe (The maximum relative luciferase activity was < 5%) | negative results | did not affect the expression | did not affect the expression |  |  | 
2 | O=S(=O)(O)C(F)(F)C(F)(F)C(F)(F)C(F)(F)F [perfluorobutanesulfonate] |  |  |  |  |  |  | did not show effects |  | 
3 | O=S(=O)(O)C(F)(F)C(F)(F)C(F)(F)C(F)(F)C(F)(F)C(F)(F)F [perfluorohexanesulfonate] |  |  |  |  |  |  | did not show effects |  | 
4 | O=C(O)C(F)(F)C(F)(F)C(F)(F)C(F)(F)C(F)(F)C(F)(F)C(F)(F)F [PFOA, perfluorooctanoic acid, reference compound] | NDd (The maximum relative proliferation effect was < 7%) | negative results; also recorded: did not show proliferation effects |  |  |  |  |  | induced | did not
5 | FC(F)(F)C(F)(F)C(F)(F)C(F)(F)I [PFBI, 1-iodoperfluorobutane] | NDd (The maximum relative proliferation effect was < 7%) | did not show proliferation effects |  |  | did not affect the expression | did not affect the expression |  |  | 
6 | FC(F)C(F)(F)C(F)(F)C(F)(F)C(F)(F)C(F)(F)C(F)(F)C(F)(F)F [PFOC, 1H-perfluorooctane, reference compound] | NDd (The maximum relative proliferation effect was < 7%) | negative results | NDe (The maximum relative luciferase activity was < 5%) | negative results | did not affect the expression | did not affect the expression |  |  | 
7 | FC(F)(F)C(F)(F)C(F)(F)C(F)(F)C(F)(F)C(F)(F)C(F)(F)C(F)(F)C(F)(F)C(F)(F)I [PFDI, 1-iodoperfluorodecane] | NDd (The maximum relative proliferation effect was < 7%) | did not show proliferation effects |  |  | did not affect the expression | did not affect the expression |  |  | 
8 | O=S(=O)(O)C(F)(F)C(F)(F)C(F)(F)C(F)(F)C(F)(F)C(F)(F)C(F)(F)C(F)(F)F [PFOS, perfluorooctane sulfonate] |  |  |  |  |  |  | significantly inhibits | induced | did not
9 | CCCCCCI [1-Iodohexane, reference compound] | NDd (The maximum relative proliferation effect was < 7%) | negative results | NDe (The maximum relative luciferase activity was < 5%) | negative results | did not affect the expression | did not affect the expression |  |  | 
10 | FC(F)(F)C(F)(F)C(F)(F)C(F)(F)C(F)(F)C(F)(F)C(F)(F)C(F)(F)C(F)(F)C(F)(F)C(F)(F)C(F)(F)I [PFDoI, 1-iodoperfluorododecane] | NDd (The maximum relative proliferation effect was < 7%) | did not show proliferation effects |  |  | did not affect the expression | did not affect the expression |  |  | 
